This data set in a line: Human HepG2 cell viability assay in 384 well format. It counts as toxicity, cell-based. Also on record: dose 125 nL, time 70.5 hour; cytotoxicity at 70.5 h: concentration not given beside the values. The conditions noted are these: HepG2 cells, read-out: Inhibition.

For the compound `COc1ccccc1-c1nnc2n1NC(N)=C(C#N)S2`, the cytotoxicity at 70.5 h was -28.8%.

With `CCCc1nc2c(c(C)c(C)n2Cc2cccnc2)c(N)c1CC`, the cytotoxicity at 70.5 h turned out to be 54.7%.

Regarding `O=C(c1nc(Cc2c[nH]c3ccccc23)no1)N1CCCC1`, the cytotoxicity at 70.5 h is -3.26%.

On to `Cc1ccnc(SCC(=O)Nc2csc3nc(=O)c(C)nn23)n1`, for which the cytotoxicity at 70.5 h was determined as 7.67%.

As for `O=C(O)CNC(=O)Cc1csc(-c2ccccc2F)n1`, the cytotoxicity at 70.5 h is 18.6%.

On to `O=C(CNC(=O)N1CCc2c([nH]c3ccc(Cl)cc23)C1)NCCCO`, for which the cytotoxicity at 70.5 h is -18.9%.

Regarding `O=C1CCCC2=C1C(c1ccccc1Cl)Nc1nonc1N2` (configuration not stated), the cytotoxicity at 70.5 h was 0.0122%.

Consider `COCCNC(=O)c1nc(NS(=O)(=O)c2ccccc2)sc1C`, for which the cytotoxicity at 70.5 h is -18.8%.

Regarding `COc1ccccc1CNc1ccc2nncn2n1`, the cytotoxicity at 70.5 h is -11.2%.

Regarding `COC(=O)CCNC(=O)c1nc(NS(=O)(=O)c2ccccc2)sc1C`, the cytotoxicity at 70.5 h is -23%.

For `CC(=O)Nc1ccc(OCc2noc(C(=O)N3CCCCCC3)n2)cc1`, the cytotoxicity at 70.5 h was -21.4%.

As to `N#CC1=C(N)Nn2c(nnc2-c2ccccc2Br)S1`, the cytotoxicity at 70.5 h is -19%.

Regarding `CC(C)NC(=O)CCC(=O)N1CCC(c2noc3cc(F)ccc23)CC1`, the cytotoxicity at 70.5 h is -17.2%.

Take `CN1C(=O)C2(CC(=O)Nc3c2cnn3C(C)(C)C)c2ccccc21` (configuration not stated): the cytotoxicity at 70.5 h is -18.7%.

In the case of `O=C1CCCC2=C1C(c1cc(Cl)ccc1F)Nc1nonc1N2` (configuration not stated), the cytotoxicity at 70.5 h was 9.69%.

As for `CCOC(=O)c1nc(COc2ccc(CC(N)=O)cc2)no1`, the cytotoxicity at 70.5 h is -10.5%.

In the case of `COCCNC(=O)Cc1cnc(-n2cccc2)s1`, the cytotoxicity at 70.5 h was -22.5%.

With `Cc1occc1-c1nnc2n1NC(N)=C(C#N)S2`, the cytotoxicity at 70.5 h is -22.4%.

On to `N#Cc1nc(COc2ccc3c(c2)OCO3)oc1N1CCCC1`, for which the cytotoxicity at 70.5 h is -26.5%.

In the case of `CN1C(=O)C2(CC(=O)Nc3[nH]ncc32)c2ccc(F)cc21` (configuration not stated), the cytotoxicity at 70.5 h was -15.5%.

`C[C@@H](O)CNC(=O)c1nc(CC(=O)Nc2cccc(C(F)(F)F)c2)no1`: the cytotoxicity at 70.5 h was -23.7%.

On to `Cc1occc(=O)c1OCc1noc(C(=O)NC(C)C)n1`, for which the cytotoxicity at 70.5 h was -15.1%.

With `Cc1cccc(N2Cc3nc(=O)n(Cc4cccc(F)c4)n3C2=O)c1`, the cytotoxicity at 70.5 h is -18%.

Regarding `Cc1nc2oc(C(=O)N3CCOCC3)c(N)c2c2c1CCCC2`, the cytotoxicity at 70.5 h is -17.3%.

On to `COc1cc2c(cc1OC)C(=O)C(Sc1nnc(C)o1)C2` (configuration not stated), for which the cytotoxicity at 70.5 h was -15.9%.

Take `COC(=O)CCC(=O)N(Cc1ccc2cc[nH]c2c1)C1CC1`: the cytotoxicity at 70.5 h was -17.3%.

`NC(=O)Cc1ccc(OCc2noc(C(=O)N3CCCC3)n2)cc1`: the cytotoxicity at 70.5 h was -23.4%.

Consider `O=S1(=O)CCC(S(=O)(=O)c2cccc(S(=O)(=O)N3CCOCC3)c2)C1` (configuration not stated), for which the cytotoxicity at 70.5 h is -8.35%.

On to `Cc1ccc2c(c1)C1(CC(=O)Nc3[nH]ncc31)C(=O)N2C` (configuration not stated), for which the cytotoxicity at 70.5 h is -21.9%.

Regarding `CC(C)NC(=O)Cn1ccc2c(Cl)cccc21`, the cytotoxicity at 70.5 h was -19%.

In the case of `Cc1occc(=O)c1OCc1noc(C(=O)NCC(C)C)n1`, the cytotoxicity at 70.5 h is -16.8%.

For the compound `N#Cc1nc(COc2ccc3c(c2)OCO3)oc1N1CCCCCC1`, the cytotoxicity at 70.5 h is -21.8%.

With `Cc1cc(C)n(Cc2ccc(-c3noc(C(=O)NC[C@@H](C)O)n3)cc2)n1`, the cytotoxicity at 70.5 h is -14.8%.

Regarding `CC[C@@H](C)[C@H](NC(=O)Cn1ccc2c(Cl)cccc21)C(=O)O`, the cytotoxicity at 70.5 h was -13.9%.

As to `CN1C(=O)COc2ccc(C(=O)Cn3cnc4ccsc4c3=O)cc21`, the cytotoxicity at 70.5 h is 17.1%.

Turning to `CCC(C)NC(=O)c1snnc1-c1ccc(OC)cc1` (configuration not stated), the cytotoxicity at 70.5 h was determined as 0.408%.

`O=C(Cc1csc(-c2ccccc2F)n1)NCc1cccc(C(=O)O)c1`: the cytotoxicity at 70.5 h was -17.7%.

Consider `O=C(Nc1ccccn1)C1(n2cnnn2)CCCCC1`, for which the cytotoxicity at 70.5 h was -21.1%.

For `O=C1N(c2cccc(F)c2)Cc2nc(=O)n(Cc3ccc(Cl)cc3)n21`, the cytotoxicity at 70.5 h was -12.7%.

As to `O=C1N(c2cccc(F)c2)Cc2nc(=O)n(Cc3ccccc3Cl)n21`, the cytotoxicity at 70.5 h was -18.7%.

For `CC(C)CCNC(=O)c1ccc(-n2cnc3ccccc3c2=O)cc1`, the cytotoxicity at 70.5 h was -27.3%.

On to `COc1cccc(-c2nc(C)c(C(=O)NCCC(=O)O)s2)c1`, for which the cytotoxicity at 70.5 h is -15.8%.

`CCc1c(C)sc2c1c(N)nc(=O)n2CCN(C)C`: the cytotoxicity at 70.5 h came to 18.9%.

As for `COc1ccc2cnn(CC(=O)NC3CCCCC3)c(=O)c2c1OC`, the cytotoxicity at 70.5 h was 1.17%.

For `Cc1occc(=O)c1OCC(=O)N1CCN(c2ccccc2)CC1`, the cytotoxicity at 70.5 h is -0.838%.

Turning to `O=C(Cc1csc(-c2ccccc2Cl)n1)NCc1cccc(C(=O)O)c1`, the cytotoxicity at 70.5 h is -18.1%.

For the compound `COc1ccc(NC(=O)Cn2c(=O)nc(N)c3cc(C)sc32)cc1`, the cytotoxicity at 70.5 h is -13.1%.

Take `O=C1CC(c2ccccc2)c2c(c(C(=O)O)cn2-c2ccccc2)N1` (configuration not stated): the cytotoxicity at 70.5 h is -10.7%.

As for `Cc1n[nH]c2nc(-c3cc(Br)ccc3O)cc(C(=O)O)c12`, the cytotoxicity at 70.5 h came out at 8.54%.

As to `CN1CCN(C(=O)c2cc3sccc3n2Cc2ccccc2)CC1`, the cytotoxicity at 70.5 h is -6.85%.

As to `COC(=O)c1ccc(C2CC(=O)Nc3c2cnn3C)cc1` (configuration not stated), the cytotoxicity at 70.5 h is 3.26%.

Consider `Cc1c(OCC(=O)NCc2ccccc2)c(=O)ccn1C`, for which the cytotoxicity at 70.5 h is -17.6%.

For the compound `NC(=O)c1c(SCCN2CCCCC2)sc2c(O)cc(=O)[nH]c12`, the cytotoxicity at 70.5 h is -7.79%.

`Cc1c(C2SCC(=O)Nc3c2cnn3C(C)(C)C)cnn1C` (configuration not stated): the cytotoxicity at 70.5 h is -10.1%.

Turning to `COc1ccccc1N1CCN(C(=O)COc2c(C)occc2=O)CC1`, the cytotoxicity at 70.5 h is 6.76%.

On to `Cn1ncc2c1NC(=O)CSC2c1ccc2c(c1)OCO2` (configuration not stated), for which the cytotoxicity at 70.5 h was determined as 10.3%.

In the case of `Cc1ccc(CN2CC[C@H]3C(=O)N(c4cccnc4)CCO[C@H]3C2)o1`, the cytotoxicity at 70.5 h is -5.97%.

Regarding `CN1Cc2c(C(=O)N3CCOCC3)ncn2-c2ccccc2S1(=O)=O`, the cytotoxicity at 70.5 h was -1.47%.

As to `CN1CCN(C(=O)c2ncn3c2CNS(=O)(=O)c2ccccc2-3)CC1`, the cytotoxicity at 70.5 h turned out to be 1.85%.

As to `Cc1nc(-c2cc(C(=O)NCC(C)(C)CO)c3ccccn23)cs1`, the cytotoxicity at 70.5 h worked out at 5.35%.

Regarding `O=C(c1ccc[nH]1)N1CCC2(CC1)COCCN(c1nccs1)C2`, the cytotoxicity at 70.5 h is -1.47%.

Regarding `CN1CC[C@]2(CN(C(=O)[C@H]3CCCO3)C[C@H]2c2ccccc2)C1=O`, the cytotoxicity at 70.5 h is -2.45%.

In the case of `O=S(=O)(C1CC1)N1CCn2c(Cn3cccn3)cnc2C1`, the cytotoxicity at 70.5 h is -1.3%.

As for `Cc1csc(CN2CC[C@H]3C(=O)N(c4cccnc4)CCO[C@H]3C2)n1`, the cytotoxicity at 70.5 h came to 11%.

For the compound `N#Cc1cccc(N2CCCC3(CN(C(=O)NC4CC4)CCO3)C2)c1` (configuration not stated), the cytotoxicity at 70.5 h is -1.09%.

For the compound `CCS(=O)(=O)N1Cc2c(Cn3cccc3)nn(C(C)C)c2C1`, the cytotoxicity at 70.5 h is -2.77%.

With `Cc1ccc(N2CC3(CCN(S(=O)(=O)C4CC4)C3)C2)nn1`, the cytotoxicity at 70.5 h was -5.86%.

`CCS(=O)(=O)N1CCC2(CC1)CC[C@@]1(C(=O)N(C)C)CN(C(C)=O)C[C@@H]21`: the cytotoxicity at 70.5 h was 13.5%.

`COCCN1C(=O)C2(CCC(C(=O)Nc3ccc(C)cc3)CC2)N=C1C` (configuration not stated): the cytotoxicity at 70.5 h worked out at 10.5%.

As to `O=C(NCC1CC[C@@]2(CNCCOC2)O1)c1cnccn1` (some centres not stated), the cytotoxicity at 70.5 h turned out to be 27.6%.

As to `CNC(=O)[C@H]1C[C@@H]2CN(c3cc(OC)ncn3)C[C@@H]2N1C(C)C`, the cytotoxicity at 70.5 h came to 15.2%.

As to `O=C(NCC1CCC2(CCNCC2)CO1)c1cnccn1` (configuration not stated), the cytotoxicity at 70.5 h stood at 9.23%.

Turning to `CCn1ncc2c1CN(C(=O)c1cc(C)oc1C)CC2COC` (configuration not stated), the cytotoxicity at 70.5 h was -0.428%.

For the compound `CCc1ccc(NC(=O)N2Cc3c(CN(C)C)nn(C)c3C2)cc1`, the cytotoxicity at 70.5 h is -2.56%.

On to `Cc1ccc(N2CCC3(CC2)CCN(C2CCOCC2)CC3)nn1`, for which the cytotoxicity at 70.5 h is -2.19%.

Take `O=C1CC2(CCCCN2CC2CC2)CN1c1ccccc1` (configuration not stated): the cytotoxicity at 70.5 h was -3.65%.

Turning to `O=C(NC1CC1)[C@@H]1CN(Cc2ccc3c(c2)OCO3)C[C@H]2OCC[C@H]21`, the cytotoxicity at 70.5 h was -1.06%.

Consider `Cc1cccc(CN2CCc3c(CNC(=O)CC#N)nn(C)c3C2)n1`, for which the cytotoxicity at 70.5 h was -0.367%.

Take `N#Cc1ccccc1N1CC2(CCCCN2CC2CC2)CC1=O` (configuration not stated): the cytotoxicity at 70.5 h came to 7.89%.

With `NC(=O)c1nc2c(s1)CCN(Cc1ccccc1)CC2`, the cytotoxicity at 70.5 h is -2.47%.

On to `CCN(CC)C(=O)c1nc2c(s1)CCN(Cc1cccc(OC)c1)CC2`, for which the cytotoxicity at 70.5 h was -11.2%.

On to `COCC(=O)N1CCc2ccc(=O)n(Cc3csc(C)n3)c2CC1`, for which the cytotoxicity at 70.5 h is -6.47%.

`CCCN1CCCn2c(nc(CNC(=O)c3nccn3C)cc2=O)C1`: the cytotoxicity at 70.5 h is -9.48%.

Consider `Cn1ccnc1C(=O)N1CCC2(CCCN2CC2CC2)CC1`, for which the cytotoxicity at 70.5 h was -7.19%.

As to `CCCN1CCCn2c(nc(CNC(=O)N3CCCC3)cc2=O)C1`, the cytotoxicity at 70.5 h is -9.21%.

On to `COc1cccc(CN2CCc3nc(C(=O)NCC(C)C)sc3CC2)c1`, for which the cytotoxicity at 70.5 h came out at 10.6%.

Take `CS(=O)(=O)N1C[C@H]2CCCN(Cc3nccs3)[C@H]2C1`: the cytotoxicity at 70.5 h stood at 14.5%.

In the case of `CNC(=O)CC1CC2(CCN(c3ncccn3)CC2)c2ccccc21` (configuration not stated), the cytotoxicity at 70.5 h was -6.77%.

In the case of `Cn1cc(CN2CCC3(CC2)C(=O)Nc2ccccc23)cn1`, the cytotoxicity at 70.5 h is -6.51%.

In the case of `CCn1ncc2c1C(COCC1CC1)N(Cc1ccccn1)CC2` (configuration not stated), the cytotoxicity at 70.5 h was -1.07%.

Consider `c1ccc(OCc2n[nH]c3c2CN(CC2CC2)C3)nc1`, for which the cytotoxicity at 70.5 h was -2.5%.

Turning to `c1ccc(OCc2n[nH]c3c2CN(Cc2cccs2)C3)nc1`, the cytotoxicity at 70.5 h is -0.121%.

In the case of `c1cc2c(cc1CN1C[C@@H]3COC[C@@H](N4CCCC4)[C@@H]3C1)OCO2`, the cytotoxicity at 70.5 h is -6.89%.

With `CN(C)C(=O)CN1CCOCC2(CCN(CC3CCOC3)CC2)C1` (configuration not stated), the cytotoxicity at 70.5 h worked out at 15.1%.

`Cc1ccc2c(n1)N(CCN(C)C)CCN(Cc1c(C)noc1C)C2`: the cytotoxicity at 70.5 h is -2.08%.

For the compound `CN(C)CCN1CCCC12CCCN(Cc1ccoc1)C2` (configuration not stated), the cytotoxicity at 70.5 h worked out at 13.7%.

Regarding `CC(C)N1CCc2c(c(COc3cccnc3)nn2CC2CC2)C1`, the cytotoxicity at 70.5 h was -2.06%.

The values above are taken from ChEMBL document CHEMBL3507680, “University of Dundee, Gates Library screen for HepG2 cell viability”.
